How the values were obtained:
FRAP = FRAP (Homo sapiens, UniProt P42345); experiment: Kinobeads competition binding, immobilized CZC31207, HeLa/placenta lysate mix; set-up: endogenous in cells; host or cells: mixed lysate of HeLa cells and placenta; details: 10 μM free compound; mixed HeLa and placenta cell lysates
Description: (§1) To the first aliquot of cell lysate 10 μM of the free compound (CZC31207) was added and allowed to bind to proteins in the lysate. Then the affinity matrix with the immobilized compound (Example 1) was added to capture proteins that were not interacting with the previously added free compound. Beads were separated from the lysate and bead bound proteins were eluted in SDS sample buffer and subsequently separated by SDS-Polyacrylamide gel electrophoresis (FIG. 4). Suitable gel bands were cut out and subjected to in-gel proteolytic digestion with trypsin. The second lysate aliquot was processed identically, however no free compound was added (DMSO solvent control). Peptides originating from samples 1 and 2 were labeled with iTRAQ reagents (iTRAQ 115 and iTRAQ 117) and the combined samples were analyzed with a nano-flow liquid chromatography system coupled online to a tandem mass spectrometer (LC-MS/MS) experiment followed by iTRAQ reporter ion quantification in the MS/MS spectra (Ross et al., 2004. Mol. Cell. Proteomics 3(12):1154-1169). Further experimental protocols can be found in WO2006/134056 and a previous publication (Bantscheff et al., 2007. Nature Biotechnology 25, 1035-1044).
(§2) Cells were homogenized in a Potter S homogenizer in lysis buffer: 50 mM Tris-HCl, 0.8% NP40, 5% glycerol, 150 mM NaCl, 1.5 mM MgCl2, 25 mM NaF, 1 mM sodium vanadate, 1 mM DTT, pH 7.5. One complete EDTA-free tablet (protease inhibitor cocktail, Roche Diagnostics, 1 873 580) per 25 ml buffer was added. The material was dounced 20 times using a mechanized POTTER S, transferred to 50 ml falcon tubes, incubated for 30 minutes rotating at 4° C. and spun down for 10 minutes at 20,000×g at 4° C. (10,000 rpm in Sorvall SLA600, precooled). The supernatant was transferred to an ultracentrifuge (UZ)-polycarbonate tube (Beckmann, 355654) and spun for 1 hour at 145.000×g at 4° C. […] The supernatant was transferred again to a fresh 50 ml falcon tube, the protein concentration was determined by a Bradford assay (BioRad) and samples containing 50 mg of protein per aliquot were prepared. […]

PIK3Cd = PIK3Cd (Homo sapiens, UniProt O00329); experiment: as above; set-up: endogenous in cells; host or cells: mixed lysate of HeLa cells and placenta; details: 10 μM free compound; mixed HeLa and placenta cell lysates
Sequence of PIK3Cd (O00329 whole entry): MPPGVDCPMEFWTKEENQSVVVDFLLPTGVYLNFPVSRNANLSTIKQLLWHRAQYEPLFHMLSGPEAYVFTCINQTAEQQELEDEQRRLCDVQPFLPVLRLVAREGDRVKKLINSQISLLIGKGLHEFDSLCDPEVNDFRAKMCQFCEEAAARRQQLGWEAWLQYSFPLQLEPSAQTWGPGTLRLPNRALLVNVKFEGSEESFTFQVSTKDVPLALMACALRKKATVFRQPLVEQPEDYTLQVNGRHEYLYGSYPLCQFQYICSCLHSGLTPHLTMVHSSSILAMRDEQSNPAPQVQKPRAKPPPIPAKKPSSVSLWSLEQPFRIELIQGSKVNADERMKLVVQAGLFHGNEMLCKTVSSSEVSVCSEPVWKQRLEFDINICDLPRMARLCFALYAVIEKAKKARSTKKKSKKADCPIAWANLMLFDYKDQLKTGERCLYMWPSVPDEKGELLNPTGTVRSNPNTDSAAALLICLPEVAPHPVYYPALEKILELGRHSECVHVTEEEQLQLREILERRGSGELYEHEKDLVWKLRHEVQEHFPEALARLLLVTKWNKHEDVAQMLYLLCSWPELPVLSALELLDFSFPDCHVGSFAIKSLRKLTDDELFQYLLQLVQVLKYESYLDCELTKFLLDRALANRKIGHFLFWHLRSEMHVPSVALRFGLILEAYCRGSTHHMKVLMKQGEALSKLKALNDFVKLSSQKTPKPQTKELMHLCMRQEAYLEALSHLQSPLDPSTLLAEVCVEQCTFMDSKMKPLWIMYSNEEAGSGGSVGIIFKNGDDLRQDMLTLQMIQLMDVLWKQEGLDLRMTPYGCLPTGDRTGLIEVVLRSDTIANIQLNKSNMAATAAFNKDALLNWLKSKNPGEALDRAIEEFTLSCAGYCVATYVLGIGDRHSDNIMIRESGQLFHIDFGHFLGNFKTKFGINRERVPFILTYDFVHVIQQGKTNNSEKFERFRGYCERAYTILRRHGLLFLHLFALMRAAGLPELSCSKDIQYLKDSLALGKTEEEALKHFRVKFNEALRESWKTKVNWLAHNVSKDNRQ
Sequence of PIK3Cd (P27986 whole entry partner): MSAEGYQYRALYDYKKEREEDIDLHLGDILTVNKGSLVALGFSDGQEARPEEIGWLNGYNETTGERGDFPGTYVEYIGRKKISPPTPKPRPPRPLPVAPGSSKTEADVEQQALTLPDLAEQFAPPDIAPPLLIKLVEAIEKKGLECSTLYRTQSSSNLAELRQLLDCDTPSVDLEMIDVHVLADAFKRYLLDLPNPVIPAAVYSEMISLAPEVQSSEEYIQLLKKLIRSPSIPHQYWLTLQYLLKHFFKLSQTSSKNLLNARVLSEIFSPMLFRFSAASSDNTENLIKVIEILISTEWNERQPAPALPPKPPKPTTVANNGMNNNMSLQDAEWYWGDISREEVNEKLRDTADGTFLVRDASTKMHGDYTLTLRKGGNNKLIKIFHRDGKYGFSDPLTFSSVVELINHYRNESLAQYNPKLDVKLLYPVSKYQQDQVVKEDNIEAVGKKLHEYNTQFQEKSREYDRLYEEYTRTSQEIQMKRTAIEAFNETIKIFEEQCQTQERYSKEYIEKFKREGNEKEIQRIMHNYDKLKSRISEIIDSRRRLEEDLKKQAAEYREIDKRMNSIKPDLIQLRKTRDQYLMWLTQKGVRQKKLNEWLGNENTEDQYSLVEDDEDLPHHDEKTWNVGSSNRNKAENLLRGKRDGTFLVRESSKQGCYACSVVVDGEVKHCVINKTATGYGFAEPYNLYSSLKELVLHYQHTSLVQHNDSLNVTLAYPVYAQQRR
Description: as §1, §2

PIP5K2A = biological target: T1, PIP5K2A (Homo sapiens, UniProt P48426); experiment: Kinobeads competition binding, immobilized CZC31207, Jurkat/Ramos lysate mix; details: 10 μM free compound; mix of Jurkat and Ramos cell lysates
T1 construct: endogenous in cells
Description: (§3) To the first aliquot of cell lysate 10 μM of the free compound CZC31207 was added and allowed to bind to proteins in the lysate. Then the affinity matrix with the immobilized compound was added to capture proteins that were not interacting with the previously added free compound. Beads were separated from the lysate and bead bound proteins were eluted in SDS sample buffer and subsequently separated by SDS-Polyacrylamide gel electrophoresis (FIG. 5). Suitable gel bands were cut out and subjected to in-gel proteolytic digestion with trypsin. The second lysate aliquot was processed identically, however no free compound was added (DMSO solvent control). Peptides originating from samples 1 and 2 were labeled with iTRAQ reagents (iTRAQ 114 and iTRAQ 116) and the combined samples were analyzed with a nano-flow liquid chromatography system coupled online to a tandem mass spectrometer (LC-MS/MS) experiment followed by iTRAQ reporter ion quantification in the MS/MS spectra as described in Example 2.
(§4) Jurkat cells (ATCC number T1B-152) and Ramos cells (ATCC number CRL-1596) were either obtained from an external supplier (CIL SA, Mons, Belgium) or grown in one litre Spinner flasks (Integra Biosciences, #182101) in suspension in RPMI 1640 medium (Invitrogen, #21875-034) supplemented with 10% Fetal Bovine Serum (Invitrogen, #10270-106) at a density between 0.2×10^6 and 1.0×10^6 cells/ml. Cells were harvested by centrifugation, washed once with 1×PBS buffer (Invitrogen, #14190-094) and cell pellets were frozen in liquid nitrogen and subsequently stored at −80° C.
(§5) The identified kinases are shown in Table 5 including the percent competition values for the sample to which 10 μM free compound had been added. In total of 20 different kinases were identified and competed by different degrees.

PIK4C2B = biological target: T2, PIK4C2B (Homo sapiens, UniProt Q8TCG2); experiment: as above; details: 10 μM free compound; mix of Jurkat and Ramos cell lysates
T2 construct: endogenous in cells; host or cells: mixed lysate of Jurkat and Ramos cells
T2 sequence (Q8TCG2 whole entry): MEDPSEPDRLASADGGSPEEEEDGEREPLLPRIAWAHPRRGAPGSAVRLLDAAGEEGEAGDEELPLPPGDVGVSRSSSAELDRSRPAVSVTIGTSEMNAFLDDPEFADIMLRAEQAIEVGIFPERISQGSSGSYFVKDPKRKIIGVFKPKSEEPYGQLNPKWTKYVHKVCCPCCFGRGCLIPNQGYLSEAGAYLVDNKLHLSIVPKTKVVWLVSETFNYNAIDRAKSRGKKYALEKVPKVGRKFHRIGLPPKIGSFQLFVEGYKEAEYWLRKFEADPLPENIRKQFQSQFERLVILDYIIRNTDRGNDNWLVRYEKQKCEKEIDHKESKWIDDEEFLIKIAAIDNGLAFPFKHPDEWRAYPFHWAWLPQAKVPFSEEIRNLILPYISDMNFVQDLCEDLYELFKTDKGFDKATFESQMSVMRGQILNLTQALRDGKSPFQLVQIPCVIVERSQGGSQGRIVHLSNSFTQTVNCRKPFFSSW
Description: as §3, §4, §5

PIK4Ca = PIK4Ca (Homo sapiens, UniProt P42356); experiment: Kinobeads competition binding, immobilized CZC31207, HeLa/placenta lysate mix; set-up: endogenous in cells; details: 10 μM free compound; mixed HeLa and placenta cell lysates
Sequence of PIK4Ca (P42356 whole entry): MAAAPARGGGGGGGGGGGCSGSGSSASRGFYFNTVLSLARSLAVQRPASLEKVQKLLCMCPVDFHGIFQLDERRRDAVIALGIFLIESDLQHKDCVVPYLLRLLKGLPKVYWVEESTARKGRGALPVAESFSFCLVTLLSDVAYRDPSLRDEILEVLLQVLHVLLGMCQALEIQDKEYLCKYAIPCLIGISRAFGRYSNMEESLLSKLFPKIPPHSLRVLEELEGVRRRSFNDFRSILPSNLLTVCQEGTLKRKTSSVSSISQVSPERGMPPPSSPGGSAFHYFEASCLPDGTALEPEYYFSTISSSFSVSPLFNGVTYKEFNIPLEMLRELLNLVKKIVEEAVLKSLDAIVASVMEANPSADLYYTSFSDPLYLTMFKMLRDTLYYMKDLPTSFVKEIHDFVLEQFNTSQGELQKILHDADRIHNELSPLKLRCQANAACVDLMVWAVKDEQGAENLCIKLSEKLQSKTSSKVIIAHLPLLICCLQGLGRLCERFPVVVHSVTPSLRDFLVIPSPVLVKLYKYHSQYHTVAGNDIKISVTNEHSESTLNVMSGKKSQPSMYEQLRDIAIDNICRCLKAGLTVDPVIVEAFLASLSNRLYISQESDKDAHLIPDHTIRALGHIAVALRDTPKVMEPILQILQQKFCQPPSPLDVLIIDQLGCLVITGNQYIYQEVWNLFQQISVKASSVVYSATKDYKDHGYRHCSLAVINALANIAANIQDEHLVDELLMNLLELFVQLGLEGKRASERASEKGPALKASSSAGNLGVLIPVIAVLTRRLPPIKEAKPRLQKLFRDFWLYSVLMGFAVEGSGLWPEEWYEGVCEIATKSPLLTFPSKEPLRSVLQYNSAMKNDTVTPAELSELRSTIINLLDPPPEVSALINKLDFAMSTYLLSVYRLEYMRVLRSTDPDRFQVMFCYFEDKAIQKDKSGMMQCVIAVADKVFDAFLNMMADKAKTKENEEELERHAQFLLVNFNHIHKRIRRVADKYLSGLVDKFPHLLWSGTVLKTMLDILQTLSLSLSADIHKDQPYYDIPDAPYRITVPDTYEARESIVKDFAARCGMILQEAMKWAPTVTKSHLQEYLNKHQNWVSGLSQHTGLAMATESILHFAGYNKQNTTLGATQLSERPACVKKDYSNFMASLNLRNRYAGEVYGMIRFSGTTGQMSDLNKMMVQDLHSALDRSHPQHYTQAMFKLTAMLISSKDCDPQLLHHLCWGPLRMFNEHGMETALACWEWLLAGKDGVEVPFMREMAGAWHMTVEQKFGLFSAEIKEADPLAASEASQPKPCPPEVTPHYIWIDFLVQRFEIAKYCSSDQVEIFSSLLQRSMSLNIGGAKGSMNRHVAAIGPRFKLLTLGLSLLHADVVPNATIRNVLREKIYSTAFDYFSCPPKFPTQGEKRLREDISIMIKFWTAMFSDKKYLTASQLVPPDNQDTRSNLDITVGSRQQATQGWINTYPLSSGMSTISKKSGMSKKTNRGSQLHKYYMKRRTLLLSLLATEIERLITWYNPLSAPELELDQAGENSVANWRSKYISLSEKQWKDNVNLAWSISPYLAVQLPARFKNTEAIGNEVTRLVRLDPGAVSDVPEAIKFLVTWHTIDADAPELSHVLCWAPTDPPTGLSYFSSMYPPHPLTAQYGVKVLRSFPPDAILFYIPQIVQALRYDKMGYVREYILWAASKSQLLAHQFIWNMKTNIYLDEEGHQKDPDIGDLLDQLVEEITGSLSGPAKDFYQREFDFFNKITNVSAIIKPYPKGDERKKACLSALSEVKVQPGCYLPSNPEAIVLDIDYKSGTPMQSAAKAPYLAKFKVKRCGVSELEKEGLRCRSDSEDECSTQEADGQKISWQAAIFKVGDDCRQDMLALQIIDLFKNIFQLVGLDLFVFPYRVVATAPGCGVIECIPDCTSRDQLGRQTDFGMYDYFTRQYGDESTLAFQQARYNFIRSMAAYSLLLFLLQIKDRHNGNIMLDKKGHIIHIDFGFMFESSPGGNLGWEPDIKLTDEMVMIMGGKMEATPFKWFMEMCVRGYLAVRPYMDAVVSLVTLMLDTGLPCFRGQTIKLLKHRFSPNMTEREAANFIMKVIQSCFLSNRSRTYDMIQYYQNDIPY
Description: as §1
(§6) Cells were homogenized in a Potter S homogenizer in lysis buffer: 50 mM Tris-HCl, 0.8% NP40, 5% glycerol, 150 mM NaCl, 1.5 mM MgCl2, 25 mM NaF, 1 mM sodium vanadate, 1 mM DTT, pH 7.5. One complete EDTA-free tablet (protease inhibitor cocktail, Roche Diagnostics, 1 873 580) per 25 ml buffer was added. The material was dounced 20 times using a mechanized POTTER S, transferred to 50 ml falcon tubes, incubated for 30 minutes rotating at 4° C. and spun down for 10 minutes at 20,000×g at 4° C. (10,000 rpm in Sorvall SLA600, precooled). The supernatant was transferred to an ultracentrifuge (UZ)-polycarbonate tube (Beckmann, 355654) and spun for 1 hour at 145.000×g at 4° C. (40.000 rpm in Ti50.2, precooled). The supernatant was transferred again to a fresh 50 ml falcon tube, the protein concentration was determined by a Bradford assay (BioRad) and samples containing 50 mg of protein per aliquot were prepared. The samples were immediately used for experiments or frozen in liquid nitrogen and stored frozen at −80° C.
(§7) Sepharose-beads with the immobilized compound (100 μl beads per pull-down experiment) were equilibrated in lysis buffer and incubated with a cell lysate sample containing 50 mg of protein on an end-over-end shaker (Roto Shake Genie, Scientific Industries Inc.) for 2 hours at 4° C. Beads were collected, transferred to Mobicol-columns (MoBiTech 10055) and washed with 10 ml lysis buffer containing 0.4% NP40 detergent, followed by 5 ml lysis buffer containing 0.2% detergent. To elute bound proteins, 60 μl 2×SDS sample buffer was added to the column. […]

BCKDK = BCKDK (Homo sapiens, UniProt O14874); experiment: as above; set-up: endogenous in cells; details: 10 μM free compound; mixed HeLa and placenta cell lysates
Description: as §1, §6, §7

MAP3K1 = MAP3K1 (Homo sapiens, UniProt Q13233); experiment: as above; set-up: endogenous in cells; details: 10 μM free compound; mixed HeLa and placenta cell lysates
Description: as §1, §6, §7

CaMK2g = CaMK2g (Homo sapiens, UniProt Q13555); experiment: as above; set-up: endogenous in cells; details: 10 μM free compound; mixed HeLa and placenta cell lysates
Sequence of CaMK2g (Q13555 whole entry): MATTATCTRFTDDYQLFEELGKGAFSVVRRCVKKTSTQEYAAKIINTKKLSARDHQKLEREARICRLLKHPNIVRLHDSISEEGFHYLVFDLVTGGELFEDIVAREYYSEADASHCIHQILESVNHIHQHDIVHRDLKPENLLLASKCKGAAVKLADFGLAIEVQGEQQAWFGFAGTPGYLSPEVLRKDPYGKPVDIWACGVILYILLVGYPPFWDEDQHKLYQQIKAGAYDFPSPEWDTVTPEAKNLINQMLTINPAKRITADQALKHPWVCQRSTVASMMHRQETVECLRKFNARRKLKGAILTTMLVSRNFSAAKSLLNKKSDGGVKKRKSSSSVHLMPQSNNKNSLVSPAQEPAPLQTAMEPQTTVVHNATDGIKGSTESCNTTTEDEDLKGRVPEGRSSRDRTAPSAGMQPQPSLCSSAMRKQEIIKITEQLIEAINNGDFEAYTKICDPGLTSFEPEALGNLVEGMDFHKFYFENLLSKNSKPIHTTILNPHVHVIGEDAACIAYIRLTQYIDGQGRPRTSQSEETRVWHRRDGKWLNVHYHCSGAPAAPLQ
Description: as §1, §6, §7

SMILES: CC(C)NS(=O)(=O)c1cncc(-c2ccc3nc(NC(=O)NCCN)nn3c2)c1 [CZC31207, 5-(2-(3-(2-aminoethyl)ureido)-[1,2,4]triazolo[1,5-a]pyridin-6-yl)-N-isopropylpyridine-3-sulfonamide]
- Competition % FRAP (FRAP): 25.9%
- Competition % PIK3Cd (PIK3Cd): 83.6%
- Competition % PIP5K2A (PIP5K2A): 68.5%
- Competition % PIK4C2B (PIK4C2B): 20.3%
- Competition % PIK4Ca (PIK4Ca): 39.9%
- Competition % BCKDK (BCKDK): 8%
- Competition % MAP3K1 (MAP3K1): 13.3%
- Competition % CaMK2g (CaMK2g): 15.2%
